We go through eight compounds from ChEMBL document CHEMBL1629470, “Synthesis, biological evaluation and docking studies of 4-amino-tetrahydroquinazolino[3,2-e]purine derivatives” (Eur J Med Chem, 2010).

As a reminder, the inhibition is the percentage by which the read-out fell short of the control. Low values mean a weak effect, high ones a strong effect.

In assay [1] the target is Proto-oncogene tyrosine-protein kinase Src (Homo sapiens) (UniProt P12931). The experiment in a line: Inhibition of Src at 10 uM after 20 mins.
Chain of Proto-oncogene tyrosine-protein kinase Src (Homo sapiens) (P12931 2-536 limits assumed): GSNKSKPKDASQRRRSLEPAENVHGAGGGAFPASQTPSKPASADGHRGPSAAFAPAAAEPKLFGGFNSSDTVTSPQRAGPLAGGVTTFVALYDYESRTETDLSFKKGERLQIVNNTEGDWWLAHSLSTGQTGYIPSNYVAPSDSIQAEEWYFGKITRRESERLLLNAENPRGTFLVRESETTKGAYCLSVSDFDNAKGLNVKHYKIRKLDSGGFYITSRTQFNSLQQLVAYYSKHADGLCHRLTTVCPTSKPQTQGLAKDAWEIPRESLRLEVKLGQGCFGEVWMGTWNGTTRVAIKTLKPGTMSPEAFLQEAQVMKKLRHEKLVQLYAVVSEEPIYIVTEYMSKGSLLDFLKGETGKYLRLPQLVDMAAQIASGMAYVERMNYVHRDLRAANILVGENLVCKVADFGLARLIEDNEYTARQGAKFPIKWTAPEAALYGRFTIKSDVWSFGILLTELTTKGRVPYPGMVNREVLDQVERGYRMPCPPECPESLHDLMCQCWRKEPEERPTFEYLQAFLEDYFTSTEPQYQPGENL
For the next assay, the system named is L1210. The experiment in a line: Cytotoxicity against mouse L1210 cells after 4 hrs by MTT assay. Format: functional. For orientation: Tetrazolium assays rely on reduction of a dye to a coloured formazan, in cell work by metabolically active cells.

Regarding `c1ccc(Nc2ncnc3c2nc2n3Cc3ccccc3N2)cc1`, the inhibition in assay [1] amounted to 58%. The same compound registered an Activity with L1210 of 34.3 µM.
In turn, `Nc1nc(Cl)nc2c1nc1n2Cc2ccccc2N1` gave an inhibition in assay [1] of 49%. Further, the Activity with L1210 came out at 23 µM.
The matching figures for `Cl.Clc1ccccc1Nc1ncnc2c1nc1n2Cc2ccccc2N1CCN1CCOCC1`: 20% and 11.9 µM.
For `Brc1ccccc1Nc1ncnc2c1nc1n2Cc2ccccc2N1CCN1CCOCC1.Cl` the same measures were 30% and 21.9 µM.
For `Cl.c1ccc(Nc2ncnc3c2nc2n3Cc3ccccc3N2CCN2CCOCC2)cc1` the same measures were 15% and 16.1 µM.
Consider `Cl.c1ccc(CNc2ncnc3c2nc2n3Cc3ccccc3N2CCN2CCOCC2)cc1`, for which the inhibition in assay [1] came to 9%. In the assay on L1210, the Activity is 31 µM.
In assay [1], `Nc1ncnc2c1nc1n2Cc2ccccc2N1` showed an inhibition of 72%. This compound yielded an Activity in the assay on L1210 of 7.3 µM.
For `CCN(CC)CCN1c2ccccc2Cn2c1nc1c(Nc3ccccc3)ncnc12.Cl` the same measures were 0% and 17.9 µM.
